Experiments:
Format in all cases: cell-based
[1] = system: 22Rv1 cell line; assay: Flow cytometry of HLA-E / PD-L1 surface expression on 22Rv1; details: for HLA-E surface expression, mean fluorescence intensity (MFI): 22Rv1, enza 15 μM, daro 20 μM, 48 h; for surface levels of HLA-E / surface levels of PD-L1: Example 2, 22Rv1
Procedure: The effect of ARi on the NKG2A ligand, HLA-E, was investigated by flow cytometry on PCa cells treated with enza and daro.
(§1) PCa cells were plated at a density of 3×10^5 cells per well of a 6-well plate and adhered overnight. […] After treatment, cells were trypsinized, stained, and incubated (Cell Staining Buffer SouthernBiotech #0225-01S) with the corresponding antibody for 45-60 min at 4° C. Viability dye was added with each run. NK-92 cells and patient-derived cells were stained similarly. Markers used for experiments included: Thermofisher HLA-E Monoclonal Antibody (3D12HLA-E), Alexa Fluor™ 488, eBioscience™, CD274 (PD-L1, B7-H1) Monoclonal Antibody (MIH1), eFluor™ 450, eBioscience™, Cell Signaling PD-1 (D4W2J) XPR Rabbit mAb, SYTOX™ Orange Dead Cell Stain, for flow cytometry, BioLegend APC anti-human CD159a (NKG2A) Antibody #375108, BioLegend APC anti-human CD69 Antibody #310909, BioLegend Alexa Fluor® 647 anti-human CD137 (4-1BB) [4B4-1] #309823. For staining of the patient-derived PBMCs and subsequent NK cell characterization, the following antibodies were used: BioLegend Anti-Perforin Mouse Monoclonal Antibody (PerCP Cy5.50, clone: dG9) #308113, BioLegend Anti-Granzyme B Mouse Monoclonal Antibody (FITC, clone: GB11) #515403, BioLegend Anti-CD56 Mouse Monoclonal Antibody (Alexa Fluor® 700, clone: 5.1H1) #362521, and BioLegend (PE anti-human CD45 Antibody) #304008.
The effect of androgen pathway inhibitors in the expression of HLA-E, a negative and key negative modulator of NK cell function, was also performed using Flow Cytometry. PD-L1 expression levels were also measured. In advance, The NK cell immune checkpoint inhibitor monalizumab (targeting NKG2A and its ligand, HLA-E) was also combined with ARi.

[2] = system: PCa cell lines (PC3, LNCaP, 22Rv1, DU145); assay: Cytokine profiling of prostate cancer cell culture supernatants (Luminex 200); details: for IFN-γ secretion: DU145, 22Rv1, and PC3 cell lines; for secretion of immune-activating cytokines such as IL-2 / secretion of pro-tumorigenic and immunosuppressive cytokines such as VEGF, M-CSF, IL-8, CXCL10 and GDF-15: PCa cell lines, 24 h
Procedure: GDF-15 is implicated in the immunosuppressive prostate cancer TME and the progression of benign prostate hyperplasia to adenocarcinoma.
The medium was collected 24 hours after treatment and stored at −80° C. until readout. Samples were shipped to Brown University to run them in biological duplicate on a Luminex 200 Instrument (R&D LX200-XPON-RUO), which captures cytokines on magnetic antibody-coated beads and measures cytokine levels using a system based on the principles of flow cytometry (see https:/www.luminexcorp.com/luminex-100200/#overviewfor more information). A custom […] panel was split into 34-plex and 18-plex assays (R&D LXSAHM) and was run on the Luminex 200 instrument according to the manufacturer's protocol.
We conducted cell viability assays to investigate the effect of Enza and Daro on PC cells (LNCap, 22Rv1 [ARv7 mutation], DU145, PC3 [AR-]) and NK-92 cells. We performed co-culture experiments with PC and NK cells in a 1:1 ratio and analyzed immune cell-mediated tumor cell killing (ImageXpress Confocal HT). Cytokine profiling (Luminex 200) of culture supernatants was performed following treatment with ARi−/+ and anti-IFN-γ antibodies. In vivo studies were performed in NCr Nude mice harboring subcutaneous PC tumors treated orally with Daro (50 mg/kg/bid) and Enza (30 mg/kg/bid) for 4 weeks.

[3] = system: NK cells; assay: Flow cytometry of NKG2A and PD-1 surface expression on NK cells
Procedure: as §1
Methods: PCa cell lines (LNCaP, 22Rv1 [ARv7 mutation], DU145[AR-], PC3 [AR-]) were cocultured with NK-92 cells and treated with ARi (enzalutamide [enza] and darolutamide [daro]) or in combination with anti-NKG2A antibody monalizumab. Immune cell-mediated tumor cell killing assays and multiplexed cytokine profiling were performed. NKc expression of NKG2A and PCa cells expression of HLA-E were investigated by flow cytometry. The AR-negative cell lines (PC3 and DU145) were stably transduced with a functional AR pathway to evaluate the modulation of HLA-E by AR. The activation status of peripheral blood NKc isolated from patients with PCa before and post-initiation of androgen deprivation therapy (ADT) was investigated by flow cytometry.

SMILES | HLA-E surface expression, mean fluorescence intensity (MFI) [1] | surface levels of HLA-E [1] | surface levels of PD-L1 [1] | IFN-γ secretion [2] | secretion of immune-activating cytokines such as IL-2 [2] | secretion of pro-tumorigenic and immunosuppressive cytokines such as VEGF, M-CSF, IL-8, CXCL10 and GDF-15 [2] | surface expression of NKG2A [3]
CNC(=O)c1ccc(N2C(=S)N(c3ccc(C#N)c(C(F)(F)F)c3)C(=O)C2(C)C)cc1F [enzalutamide] | 41.14+7.6×10^3 | did not change significantly | did not change significantly | upregulation | increased | reduced | modulate
CC(O)c1cc(C(=O)N[C@@H](C)Cn2ccc(-c3ccc(C#N)c(Cl)c3)n2)n[nH]1 (some centres unmarked) [darolutamide] | 30.5±2.69×10^3 | did not change significantly | did not change significantly | upregulation | increased | reduced | modulate
